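Compound exposure: 48 hours, 5 concentrations, 96-well plates. Definition used: TGI = concentration required for complete inhibition of growth.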
Key:
Test in all cases: inhibition of tumour cell growth, NCI panel, 48 h
XF 498 CNS = test system: XF 498 CNS
MDA-MB-231 breast = test system: MDA-MB-231 breast
MDA-MB-435 = test system: MDA-MB-435
COLO 205 colon = test system: COLO 205 colon
SK-MEL-28 melanoma = test system: SK-MEL-28 melanoma
SF-268 CNS = test system: SF-268 CNS
DMS 114 small cell lung = test system: DMS 114 small cell lung
HS 578T breast = test system: HS 578T breast
DU-145 prostate = test system: DU-145 prostate
K-562 leukemia = test system: K-562 leukemia
LXFL 529 NSCLC = test system: LXFL 529 NSCLC
786-0 renal = test system: 786-0 renal
MDA-N = test system: MDA-N
IGROV1 ovarian = test system: IGROV1 ovarian
NCI-H522 lung = test system: NCI-H522 lung
TK-10 renal = test system: TK-10 renal
A549 NSCLC = test system: A549 NSCLC
LOX IMVI melanoma = test system: LOX IMVI melanoma
SN12C renal = test system: SN12C renal
M19-MEL melanoma = test system: M19-MEL melanoma
CCRF-CEM leukemia = test system: CCRF-CEM leukemia
NCI/ADR-RES ovarian = test system: NCI/ADR-RES ovarian
HCT-15 colon = test system: HCT-15 colon
HOP-18 NSCLC = test system: HOP-18 NSCLC
ACHN renal = test system: ACHN renal
OVCAR-3 ovarian = test system: OVCAR-3 ovarian
SW-620 colon = test system: SW-620 colon
SNB-19 CNS = test system: SNB-19 CNS
U251 CNS = test system: U251 CNS
HT29 colon = test system: HT29 colon
MCF7 breast = test system: MCF7 breast
SK-OV-3 ovarian = test system: SK-OV-3 ovarian
UACC-62 melanoma = test system: UACC-62 melanoma
MALME-3M melanoma = test system: MALME-3M melanoma
UACC-257 melanoma = test system: UACC-257 melanoma
KM20L2 colon = test system: KM20L2 colon
SNB-75 CNS = test system: SNB-75 CNS
HCT-116 colon = test system: HCT-116 colon
OVCAR-8 ovarian = test system: OVCAR-8 ovarian
DMS 273 small cell lung = test system: DMS 273 small cell lung
UO-31 renal = test system: UO-31 renal
BT-549 breast = test system: BT-549 breast
SF-539 CNS = test system: SF-539 CNS
RXF-631 renal = test system: RXF-631 renal
RPMI-8226 leukemia = test system: RPMI-8226 leukemia
KM12 colon = test system: KM12 colon
SF-295 CNS = test system: SF-295 CNS
RXF 393 renal = test system: RXF 393 renal
MOLT-4 leukemia = test system: MOLT-4 leukemia
M14 melanoma = test system: M14 melanoma
NCI-H226 lung = test system: NCI-H226 lung
HCC-2998 colon = test system: HCC-2998 colon
OVCAR-5 ovarian = test system: OVCAR-5 ovarian
SK-MEL-2 melanoma = test system: SK-MEL-2 melanoma
T-47D breast = test system: T-47D breast
HOP-92 NSCLC = test system: HOP-92 NSCLC
SK-MEL-5 melanoma = test system: SK-MEL-5 melanoma
NCI-H23 lung = test system: NCI-H23 lung
HL-60(TB) leukemia = test system: HL-60(TB) leukemia
EKVX NSCLC = test system: EKVX NSCLC
HOP-62 NSCLC = test system: HOP-62 NSCLC
SNB-78 CNS = test system: SNB-78 CNS
OVCAR-4 ovarian = test system: OVCAR-4 ovarian
NCI-H460 lung = test system: NCI-H460 lung
CAKI-1 renal = test system: CAKI-1 renal
DLD-1 colon = test system: DLD-1 colon
PC-3 prostate = test system: PC-3 prostate
SR leukemia = test system: SR leukemia
A498 renal = test system: A498 renal

CCOC1c2cc(OC)c(OC)cc2-c2ccc3ccccc3c2N1C (stereo unspecified)
TGI (XF 498 CNS): 31.8 µM
TGI (MDA-MB-231 breast): 36.6 µM
TGI (MDA-MB-435): 36.7 µM
TGI (COLO 205 colon): 22.8 µM
TGI (SK-MEL-28 melanoma): 28.7 µM
TGI (SF-268 CNS): 23.6 µM
TGI (DMS 114 small cell lung): 24.6 µM
TGI (HS 578T breast): 34.1 µM
TGI (DU-145 prostate): 52.4 µM
TGI (K-562 leukemia): > 100 µM
TGI (LXFL 529 NSCLC): 24.2 µM
TGI (786-0 renal): > 64.6 µM
TGI (MDA-N): 28.6 µM
TGI (IGROV1 ovarian): 63.3 µM
TGI (NCI-H522 lung): 18.3 µM
TGI (TK-10 renal): 78.3 µM
TGI (A549 NSCLC): 52.7 µM
TGI (LOX IMVI melanoma): 41.5 µM
TGI (SN12C renal): 46.5 µM
TGI (M19-MEL melanoma): 25.9 µM
TGI (CCRF-CEM leukemia): > 100 µM
TGI (NCI/ADR-RES ovarian): 96.5 µM
TGI (HCT-15 colon): > 83 µM
TGI (HOP-18 NSCLC): > 100 µM
TGI (ACHN renal): > 87.5 µM
TGI (OVCAR-3 ovarian): 50.9 µM
TGI (SW-620 colon): 49.4 µM
TGI (SNB-19 CNS): 54.7 µM
TGI (U251 CNS): 33 µM
TGI (HT29 colon): 46.6 µM
TGI (MCF7 breast): 51 µM
TGI (SK-OV-3 ovarian): 59 µM
TGI (UACC-62 melanoma): 26.8 µM
TGI (MALME-3M melanoma): 24.1 µM
TGI (UACC-257 melanoma): 42.1 µM
TGI (KM20L2 colon): > 90.5 µM
TGI (SNB-75 CNS): 34.9 µM
TGI (HCT-116 colon): 17.7 µM
TGI (OVCAR-8 ovarian): 31.6 µM
TGI (DMS 273 small cell lung): 20.2 µM
TGI (UO-31 renal): > 77.8 µM
TGI (BT-549 breast): 28.6 µM
TGI (SF-539 CNS): 55.6 µM
TGI (RXF-631 renal): > 56.8 µM
TGI (RPMI-8226 leukemia): > 88.7 µM
TGI (KM12 colon): 21.1 µM
TGI (SF-295 CNS): > 75.9 µM
TGI (RXF 393 renal): 58.5 µM
TGI (MOLT-4 leukemia): > 82.7 µM
TGI (M14 melanoma): 40.2 µM
TGI (NCI-H226 lung): 66.9 µM
TGI (HCC-2998 colon): 31.3 µM
TGI (OVCAR-5 ovarian): > 80.2 µM
TGI (SK-MEL-2 melanoma): 28.6 µM
TGI (T-47D breast): 67.1 µM
TGI (HOP-92 NSCLC): 58.4 µM
TGI (SK-MEL-5 melanoma): 30.8 µM
TGI (NCI-H23 lung): 28.1 µM
TGI (HL-60(TB) leukemia): > 96.5 µM
TGI (EKVX NSCLC): 56.3 µM
TGI (HOP-62 NSCLC): 42.6 µM
TGI (SNB-78 CNS): > 100 µM
TGI (OVCAR-4 ovarian): 54.5 µM
TGI (NCI-H460 lung): 35.5 µM
TGI (CAKI-1 renal): > 79.7 µM
TGI (DLD-1 colon): > 75.1 µM
TGI (PC-3 prostate): 21.6 µM
TGI (SR leukemia): > 100 µM

C/C1=C/C2OC(=O)C3(C)C2C(CC2(C)OC1=CC2=O)OC3(O)C(C)C (stereo unspecified)
TGI (XF 498 CNS): 41 µM
TGI (MDA-MB-231 breast): > 100 µM
TGI (MDA-MB-435): > 100 µM
TGI (COLO 205 colon): > 73 µM
TGI (SK-MEL-28 melanoma): > 100 µM
TGI (SF-268 CNS): > 65.9 µM
TGI (DMS 114 small cell lung): 29.6 µM
TGI (HS 578T breast): > 100 µM
TGI (DU-145 prostate): > 100 µM
TGI (K-562 leukemia): > 100 µM
TGI (LXFL 529 NSCLC): 93.1 µM
TGI (786-0 renal): > 69.3 µM
TGI (MDA-N): > 100 µM
TGI (IGROV1 ovarian): > 84.5 µM
TGI (NCI-H522 lung): 35.7 µM
TGI (TK-10 renal): > 100 µM
TGI (A549 NSCLC): > 100 µM
TGI (LOX IMVI melanoma): > 100 µM
TGI (SN12C renal): > 71.4 µM
TGI (M19-MEL melanoma): > 100 µM
TGI (CCRF-CEM leukemia): > 73.4 µM
TGI (NCI/ADR-RES ovarian): > 100 µM
TGI (HCT-15 colon): > 63.1 µM
TGI (HOP-18 NSCLC): > 100 µM
TGI (ACHN renal): > 100 µM
TGI (OVCAR-3 ovarian): > 64.9 µM
TGI (SW-620 colon): 67.4 µM
TGI (SNB-19 CNS): > 74.4 µM
TGI (U251 CNS): > 54 µM
TGI (HT29 colon): > 66.9 µM
TGI (MCF7 breast): > 100 µM
TGI (SK-OV-3 ovarian): > 100 µM
TGI (UACC-62 melanoma): 56.4 µM
TGI (MALME-3M melanoma): 77.8 µM
TGI (UACC-257 melanoma): > 75.1 µM
TGI (KM20L2 colon): 43.2 µM
TGI (SNB-75 CNS): > 100 µM
TGI (HCT-116 colon): > 100 µM
TGI (OVCAR-8 ovarian): > 62.4 µM
TGI (DMS 273 small cell lung): > 100 µM
TGI (UO-31 renal): > 100 µM
TGI (BT-549 breast): 24.9 µM
TGI (SF-539 CNS): > 89.6 µM
TGI (RXF-631 renal): > 100 µM
TGI (RPMI-8226 leukemia): > 86.1 µM
TGI (KM12 colon): > 60.3 µM
TGI (SF-295 CNS): > 78.7 µM
TGI (RXF 393 renal): > 70.5 µM
TGI (MOLT-4 leukemia): > 100 µM
TGI (M14 melanoma): > 100 µM
TGI (NCI-H226 lung): > 78.6 µM
TGI (HCC-2998 colon): 48.8 µM
TGI (OVCAR-5 ovarian): > 79.3 µM
TGI (SK-MEL-2 melanoma): > 84.6 µM
TGI (T-47D breast): > 100 µM
TGI (A498 renal): > 100 µM
TGI (SK-MEL-5 melanoma): 55 µM
TGI (NCI-H23 lung): > 54.1 µM
TGI (HL-60(TB) leukemia): 54.9 µM
TGI (EKVX NSCLC): > 100 µM
TGI (HOP-62 NSCLC): > 100 µM
TGI (SNB-78 CNS): > 100 µM
TGI (OVCAR-4 ovarian): > 55.3 µM
TGI (NCI-H460 lung): > 100 µM
TGI (CAKI-1 renal): 62 µM
TGI (DLD-1 colon): 87.8 µM
TGI (PC-3 prostate): > 100 µM
TGI (SR leukemia): 65.7 µM

From PubChem BioAssay (NCI)
